Test results taken from PMC6941357, “An in vitro toolbox to accelerate anti-malarial drug discovery and development” (Malaria Journal, 2020).
Converted amounts (≈) assume the structure as drawn. “And” between values parts separate entries of the source, which are not always exact repeats. Equal values may be shown once. Read-outs that look alike come from different tables or passages of the source.

What was measured:
CYP2D6 = CYP2D6 (Homo sapiens, UniProt P10635); experiment: Cytochrome P450 inhibition in human liver microsomes; conditions: for inhibition at 20 µM: human, pH 7.4
In short: (§1)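 Metabolites quantified by LC–MS against calibration standards in quenched microsomal matrix, with diazepam as internal standard; substrate Km determined under the same incubation conditions.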

CYP1A2 = target: T1, CYP1A2 (Homo sapiens, UniProt P05177); experiment: as above
T1 sequence (P05177 1-516): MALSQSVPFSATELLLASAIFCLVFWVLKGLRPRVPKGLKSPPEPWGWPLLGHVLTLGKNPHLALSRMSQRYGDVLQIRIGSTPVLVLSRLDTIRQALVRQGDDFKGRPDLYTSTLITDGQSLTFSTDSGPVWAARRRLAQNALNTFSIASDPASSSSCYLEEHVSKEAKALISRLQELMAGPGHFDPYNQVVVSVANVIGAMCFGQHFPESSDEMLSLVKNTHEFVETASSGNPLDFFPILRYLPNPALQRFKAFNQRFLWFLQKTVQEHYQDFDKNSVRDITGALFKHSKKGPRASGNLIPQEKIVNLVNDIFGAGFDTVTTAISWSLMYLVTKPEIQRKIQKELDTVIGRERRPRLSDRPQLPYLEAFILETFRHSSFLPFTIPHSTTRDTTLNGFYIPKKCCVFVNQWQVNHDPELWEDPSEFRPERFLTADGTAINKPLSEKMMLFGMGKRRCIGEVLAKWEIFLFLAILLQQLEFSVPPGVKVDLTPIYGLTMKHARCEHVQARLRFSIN
In short: as §1

[1] = Solubility limited absorbable dose (SLAD) calculation with predicted human jejunal Peff; conditions: for solubility: FaSSIF; for An (absorption number): Peff × tres/R, minimum 1; for Permeability classification: based on ref 80 and control compounds; for Predicted human Peff: from Caco-2 Papp via calibration plot; for Ssi (estimated solubility in the small intestine): based on measured FaSSIF solubility
Excerpt: Predicted Peff values were obtained from a calibration plot of literature Peff values vs measured Caco-2 Papp using either buffer or plasma as the transport medium (see Results section).

[2] = Ionization constants by potentiometric titration; format: physicochemical; conditions: mean ± SD, n = 3 titrations; for pKa: aqueous solution (DMSO stock diluted 1:10 with water), read-out: Measured pKa
Method: The autotitrator was controlled by Tiamo software (Version 1.3). pH measurements were conducted using a Metrohm LL Micro glass electrode which was calibrated on the day of use with calibration standards at pH 2, 4, 7 and 10. All reagents were standardized (directly or indirectly) against potassium hydrogen phthalate (Sigma-Aldrich, A.C.S. Acidimetric Standard). Titrant solutions were protected from carbon dioxide absorption by flushing with nitrogen before sealing or by the incorporation of a drying tube filled with self-indicating soda lime into the titration reaction vessel set-up.
Aliquots were introduced directly into the titration vessel and diluted 1:10 with water (typical final compound concentration of 0.5 mM).

[3] = Bidirectional permeability across Caco-2 cell monolayers; conditions: human
In short: (§2)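 Transport run in both directions with either HBSS/20 mM HEPES pH 7.4 or human plasma in apical and basolateral chambers, 0.1% v/v DMSO in donor. Donor and acceptor samples quantified by LC–MS; Papp and mass balance calculated, with plasma Papp corrected for donor fraction unbound. Efflux ratio = mean B–A/A–B Papp.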

Caco-2 cell monolayers = experiment: as above; conditions: matrix: pH 7.4 buffer
In short: as §2

[4] = Binding to human liver microsomes via ultracentrifugation; format: in vitro ADME; conditions: human, pH 7.4, 0.4 mg/mL protein, read-out: Fraction unbound, HLM
In short: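 Unbound fraction by ultracentrifugation: Cunbound measured in protein-free supernate, Ctotal from spiked tubes held at 37 °C, sampled at start and end to check degradation. Matrix was 0.4 mg/mL human liver microsomal protein, 0.1 M phosphate pH 7.4; matrix-matched analysis against one calibration curve.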

human plasma = conditions: methods UF, ED, EP or not described per compound, ref [6]–[22] of Additional file 1; cited from earlier work
[5] = Caco-2, pH 7.4, A–B Papp, matrix: pH 7.4 buffer
[6] = Caco-2, A–B Papp, matrix: human plasma, corrected for fu

Chain of CYP2D6 (P10635 whole entry): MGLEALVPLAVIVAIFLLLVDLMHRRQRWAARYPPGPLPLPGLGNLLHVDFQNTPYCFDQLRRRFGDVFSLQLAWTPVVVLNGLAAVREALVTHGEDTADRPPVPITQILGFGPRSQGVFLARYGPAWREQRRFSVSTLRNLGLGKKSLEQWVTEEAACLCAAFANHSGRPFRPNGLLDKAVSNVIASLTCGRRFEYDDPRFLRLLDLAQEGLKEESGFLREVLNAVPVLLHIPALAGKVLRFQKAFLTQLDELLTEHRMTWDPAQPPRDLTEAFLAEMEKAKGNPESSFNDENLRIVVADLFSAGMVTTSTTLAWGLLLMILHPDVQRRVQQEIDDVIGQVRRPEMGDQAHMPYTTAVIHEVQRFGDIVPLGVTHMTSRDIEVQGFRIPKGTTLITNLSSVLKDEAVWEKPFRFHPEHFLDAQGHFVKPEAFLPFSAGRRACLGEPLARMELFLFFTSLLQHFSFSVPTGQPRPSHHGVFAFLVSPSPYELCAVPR

| Structure (SMILES) | IC50 (CYP2D6) [µM] | CYP2D6 % inhibition at max conc (CYP2D6; microsomes) | IC50 (CYP1A2) [µM] | solubility [1] [µg/mL] | An (absorption number) [1] | SLAD ([1]; Ssi × V (500 mL) × Mp) [mg] | Permeability classification [1] | Predicted human Peff [1] | Papp B→A ([3]; Caco-2, pH 7.4) [×10⁻⁶ cm/s] | Papp A→B [3, 5] [×10⁻⁶ cm/s] | A–B Papp (Caco-2 cell monolayers) | CYP1A2 % inhibition at max conc (CYP1A2; microsomes) | pKa ([2]; basic pKa (B)) | fraction unbound at […] ([4]; liver microsomes) | Papp B→A ([3]; Caco-2) [×10⁻⁶ cm/s] | Papp A→B [3, 6] [×10⁻⁶ cm/s] | Literature fu (human plasma) | also measured |
| --- | --- | --- | --- | --- | --- | --- | --- | --- | --- | --- | --- | --- | --- | --- | --- | --- | --- | --- |
| C[C@H]1[C@H](OC(=O)CCC(=O)O)O[C@@H]2O[C@@]3(C)CC[C@H]4[C@H](C)CC[C@@H]1[C@@]24OO3 [Artesunate] | > 20 | nmi | 20 | 1690 (≈ 4400 µM) | 1.0 | 845 | Intermediate (50–84% absorption (intermediate)) | 0.66 10^−4 cm/s | 2.8 ± 0.48 | 3.4 | 2.9 10^−6 cm/s |  |  |  |  |  |  | Ki (CYP1A2): 12 µM; pKa ([2]; acidic pKa (A)): 4.7 ± 0.04 |
| Cc1cc(Nc2ccc(C(F)(F)F)nc2)n2nc(C(C)(F)F)nc2n1 [DSM421] |  |  |  |  | 3.9 |  | High (> 85% absorption (high)) | 3.3 10^−4 cm/s |  |  |  |  |  |  |  |  |  | SLAD [1]: 182 mg; Ssi (estimated solubility in the small intestine) [1]: 93.0 µg/mL; Measured pKa ([2]; basic pKa (B)): no ionizations could be detected |
| Cc1nc(Nc2ncc(N3CCN(C)[C@H](C)C3)c(Nc3cc(C)n(C)n3)n2)cc(C2CC2)c1F [MMV253] | > 20 |  | > 20 | 569 (≈ 1220 µM) | 8.1 | 2300 | High (> 85% absorption (high)) | 6.8 10^−4 cm/s |  |  |  | nmi | 8 ± 0.03 | 0.11 ± 0.017 | 150 ± 23 | 150 ± 29 |  | inhibition at 20 µM (CYP2D6; microsomes): 35%; efflux ratio ([3]; Caco-2): 1 |
| [H]/N=C(\N/C(=N/[H])Nc1ccc(Cl)cc1)NC(C)C [Proguanil] | 3.5 |  | > 20 | > 2000 | 1.0 | > 1000 | Intermediate (50–84% absorption (intermediate)) | 0.71 10^−4 cm/s | 7.9 ± 0.51 | < 5 | 3.5 ± 0.75 10^−6 cm/s | nmi |  | 0.33 ± 0.014 |  |  | 0.25 | Ki (CYP2D6): 2.2 µM |
| CC1(C)c2nc(-c3ccc(F)cc3)c(Nc3ccc(F)cc3)n2CCN1C(=O)CN [KAF156] |  |  |  | 1600 (≈ 3890 µM) | 3.5 | 2780 | High (> 85% absorption (high)) | 2.9 10^−4 cm/s |  |  |  | nmi | 8.4 ± 0.06 | 0.14 ± 0.006 | 230 ± 17 | 47 ± 7.6 |  |  |
| CC(C)(N)CNC(=O)C[C@H]1CC[C@]2(CC1)OO[C@]1(O2)C2CC3CC(C2)CC1C3 [OZ277, Arterolane] | > 20 |  | > 20 | > 2000 | 3.2 | > 3240 | High (> 85% absorption (high)) | 2.7 10^−4 cm/s |  |  |  |  | 8.9 ± 0.16 |  | 70 ± 0.38 | 42 ± 2.8 |  | CYP1A2 % inhibition at max conc (CYP1A2; human liver microsomes, at max conc, nmi = no measurable inhibition): nmi; fraction unbound at […] ([4]; microsomes): 0.044 ± 0.005 |
| CC[C@H]1OC(=O)[C@H](C)[C@@H](O[C@H]2C[C@@](C)(OC)[C@@H](O)[C@H](C)O2)[C@H](C)[C@@H](O[C@@H]2O[C@H](C)C[C@H](N(C)C)[C@H]2O)[C@](C)(O)C[C@@H](C)CN(C)[C@H](C)[C@@H](O)[C@]1(C)O [Azithromycin] | > 20 | nmi | > 20 |  | 1.0 | 720 | Low (< 50% absorption (low)) | 0.16 10^−4 cm/s | 13 ± 3.9 |  | 0.37 10^−6 cm/s and 0.38 10^−6 cm/s | nmi |  | 0.7 ± 0.06 |  |  | 0.5-0.88 | A–B Papp (Caco-2 cell monolayers; listed as azithromycin): < 5 10^−6 cm/s |
| CS(=O)(=O)c1ccc(-c2cnc(N)c(-c3ccc(C(F)(F)F)nc3)c2)cc1 [MMV048] | > 20 |  | > 20 | 6.7 (≈ 17 µM) | 4.5 | 15 | High (> 85% absorption (high)) | 3.8 10^−4 cm/s | 53 ± 1.9 | 41 ± 2.1 |  | nmi | 4 ± 0.07 | 0.61 ± 0.014 |  |  |  | inhibition at 20 µM (CYP2D6; microsomes): 16% |
| Cc1cc(Nc2ccc(S(F)(F)(F)(F)F)cc2)n2nc(C(C)(F)F)nc2n1 [DSM265] |  |  |  |  | 5.7 | 14 | High (> 85% absorption (high)) | 4.8 10^−4 cm/s | 49 ± 5.1 | 52.4 | 69.7 10^−6 cm/s |  |  |  |  |  |  | Measured pKa ([2]; basic pKa (B)): no ionizations could be detected |
| CO[C@H]1O[C@@H]2O[C@@]3(C)CC[C@H]4[C@H](C)CC[C@@H]([C@H]1C)[C@@]24OO3 [Artemether] | > 20 | nmi | > 20 | 166 (≈ 556 µM) | 4.7 | 388 | High (> 85% absorption (high)) | 3.9 10^−4 cm/s | 42 ± 5.6 | 39.1 | 46.3 10^−6 cm/s | nmi |  | 0.5 ± 0.052 |  |  | 0.046 |  |
| C[C@H]1c2cccc(O)c2C(=O)C2=C(O)[C@]3(O)C(=O)C(C(N)=O)=C(O)[C@@H](N(C)C)[C@@H]3[C@@H](O)[C@@H]21 [Doxycyclin] | > 20 | nmi |  | > 2000 | 1.0 | > 1000 | Intermediate (50–84% absorption (intermediate)) | 0.70 10^−4 cm/s | 4.2 ± 0.29 | < 5 | 3.4 ± 0.23 10^−6 cm/s |  |  | 0.93 ± 0.045 |  |  | 0.12 |  |
| C[C@H]1Cc2c([nH]c3cc(Cl)c(F)cc23)[C@@]2(N1)C(=O)Nc1ccc(Cl)cc12 [KAE609] | 5.9 |  | 4.5 | 111 (≈ 284 µM) | 13 | 738 | High (> 85% absorption (high)) | 11 10^−4 cm/s |  |  |  |  | 5.1 ± 0.02 | 0.019 ± 0.001 | > 300 | > 300 |  | Ki (CYP2D6): 3.7 µM; Ki (CYP1A2): 2.7 µM |
| CCc1nc(N)nc(N)c1OCCCOc1ccccc1CCC(=O)O.Cl [P218] |  | nmi |  |  | 1.0 |  | Low (< 50% absorption (low)) | 0.24 10^−4 cm/s |  |  |  | nmi |  |  |  |  |  | IC50 (CYP2D6; microsomes): > 20 µM; IC50 (CYP1A2; microsomes): > 20 µM; SLAD [1]: 204 mg; Ssi (estimated solubility in the small intestine) [1]: 408 µg/mL; Measured pKa ([2]; acidic pKa (A)): 4.9 ± 0.002; Measured pKa ([2]; basic pKa (B)): 7.3 ± 0.003; B–A Papp (Caco-2 cell monolayers): 15 ± 1.7 10^−6 cm/s; efflux ratio (Caco-2 cell monolayers; mean B–A/A–B Papp): 21 |
